Like-named read-outs stand apart in the source and are kept apart here.
How the values were obtained:
rice bran lipase [1] = test system: rice bran lipase
Description: The enzyme solution containing different concentrations of ligands was passed through a sephadex G25 column which was previously equilibrated with the elution buffer. The protein eluting immediately after the void volume was collected and assayed for the activity.
The enzyme was also checked for reversibility of its original activity after removal of ligands by gel filtrations on Sephadex G-25 column.

rice bran lipase [2] = conditions: lipase 2 mg/ml, substrate 5% w/v, CaCl2 0.1 M
Description: To approximately 2 mg of rice bran lipase in 0.05 M sodium phosphate buffer, pH 7.4 is added different concentrations of ligands ranging from 1:10 to 1:1500 mole to mole ratio of protein to ligand and incubated for 1 h at30° C. in Innova™ 4000 incubator shaker at 150 rpm. The reaction mixture was checked for enzyme activity by pH-stat method using Mettler Toledo DL12 titrator using 5% solution of triacetin or tributyrin as substrate. Respective blank solutions where the enzyme was inactivated by the addition of distilled alcohol was also used. The activity was expressed in terms of control activity as microequivalents of alkali consumed per mg of protein per hour.
To approximately 2 mg of rice bran lipase in 0.05 m sodium phosphate buffer, pH 7.4 is added different concentrations of ligand ranging from 1:10 to 1:1500 on a mole to mole ratio and incubated fpr 1 hr at 30° C. in Innova™ 4000 incubator shaker at 150 rpm. The reaction mixture was checked for enzyme activity by pH start method using mettler Toledo DL 12 titrator using 5% solution of triacetin or tributyrin as substrate. Respective blank solutions where the enzyme was inactivated by the addition of distilled alcohol was also used. The activity was expressed in terms of control activity as micro equivalent of alkali consumed per mg of protein per hour.

benzene boronic acid [ligand] was tested, and the “reversibility of enzyme activity after removal of ligand” value (rice bran lipase [1]; 1:10 ratio, Sephadex G-25 column chromatography) was “able to recover the initial activity”, the “reversibility of enzyme activity after removal of ligand” value (rice bran lipase [1]; 1:1500 mole to mole ratio, gel filtration on Sephadex G-25 column) was “recovered almost its original activity” and the “loss of initial activity of rice bran lipase” value (rice bran lipase [2]; 1:10 mole to mole ratio of protein to ligand) was 35%. For the same substance, the “loss of initial activity of rice bran lipase” value (rice bran lipase [2]; 1:1500 mole/mole protein to ligand) was roughly 77%.

Source: patent publication US20020184551A1, “Process for the preparation of deactivated rice bran lipase” (COUNCIL OF SCIENTIFIC & INDUSTRIAL RESEARCH, priority 2001, published 2002)
